# Patent US7507727B2, “Substituted quinobenzoxazine analogs and methods of using thereof” (Cylene Pharmaceuticals, Inc., priority 2003, dated 2009)
# Read-outs that look alike come from different tables or passages of the source.
# How the values were obtained:
# HeLa cells = assay: MTS cell proliferation and/or cytotoxicity assay; type: cell-based, Human; conditions: concentration at which 50% of antiproliferative cell response is seen, 3 days incubation, read-out: MTS Data Hella
# Protocol: Cell culture. Human cervical epithelial cells (HeLa cells) were obtained from American Type Culture Collection (Manassas, Va.). Cells were grown in Eagle's minimum essential medium (MEM, Hyclone, Utah) supplemented with 2 mM Glutamine, 0.1 mM nonessential amino acid, 1 mM Na Pyruvate, 1.5 g/L NaHCO3, 50 mg/L gentamicin, and 10% fetal bovine serum (Hyclone, USA) in a humidified atmosphere of 5% CO2 at 37° C.
# MTS assays. Antiproliferative effects of the compounds were tested by the CellTiter 96 AQueous assay (Promega, WI), which is a calorimetric assay for determining the number of viable cells. (See, e.g., Wang, L., et al., Methods Cell Sci (1996) 18:249-255). In one example, cells (4,500 cells/well) were seeded on 96 well flat bottom plates (Corning, N.Y.) in 100 μl of culture medium without any anticancer drug on day 0, and the culture medium was exchanged for that //contained anticancer drugs at various concentrations on day 1. After incubation for 3 days under normal growth conditions (on day 4), the monolayers were washed once in PBS, and the medium was switched to 100 μl of PBS in each of the 96 well plate. After mixing MTS and PMS at the ratio of 20:1, 20 μl of MTS/PMS solution was added to each of the 96 well plate and incubated for 4 hours in a humidified atmosphere of 5% CO2 at 37° C. The absorbance was read at 490 nm using FLUOstar Galaxy 96 well plate reader (BMG Labtechnologies, Germany). μM concentrations (MTS data) reported in Table 1 are concentrations at which 50% of antiproliferative cell response is seen.
# [1] = target: c-Myc template DNA (c-myc quadruplex); assay: Quadruplex binding / stop assay (Taq polymerase arrest, capillary electrophoresis); conditions: read-out: Stop Data c-Myc μM; concentration at which 50% of the DNA was arrested (arrested:full-length 1:1)
Structure (SMILES),"IC50 (HeLa cells; Homo sapiens, HeLa, 72 h) [µM]",IC50 [1] [µM],IC50 (HeLa cells) [µM]
CN1CCCC1CCNC(=O)c1cn2c3c(c(NCC(O)c4ccccc4)c(F)cc3c1=O)Oc1cc3ccccc3cc1-2 (stereo not shown) [compound 392],0.19,0.75,
CN1CCCC1CCNC(=O)c1cn2c3c(c(N4CCC(N)C4)c(F)cc3c1=O)Oc1cc3ccccc3cc1-2 (stereo not shown) [compound 472],,0.62,3.3
CN1CCCC1CCNC(=O)c1cn2c3c(c(N4CC[C@H](N)C4)c(F)cc3c1=O)Oc1cc3ccccc3cc1-2 (stereo partly shown) [compound 474],0.37,0.58,
CN(C)CCCCNC(=O)c1cn2c3c(c(N4CC[C@H](N)C4)c(F)cc3c1=O)Oc1cc3ccccc3cc1-2 [compound 475],0.24,0.58,
O=C(NCCN1CCCC1)c1cn2c3c(c(NCCN4CCCC4)c(F)cc3c1=O)Oc1cc3c(cc1-2)oc1ccccc13 [compound 477],2.1,0.55,
O=C(NCCN1CCCC1)c1cn2c3cc4oc5cc([N+](=O)[O-])ccc5[nH]c4cc3oc3c(NCCN4CCCC4)c(F)cc(c1=O)c32 [compound 479],7.4,0.5,
CN(C)CCCCNC(=O)c1cn2c3cc4c(cc3oc3c(N5CC[C@H](NC(=O)OC(C)(C)C)C5)c(F)cc(c1=O)c32)c(=O)c1ccccc14 [compound 480],3.7,0.5,
CN1CCN(CCCNc2c(F)cc3c(=O)c(C(=O)NCCCn4ccnc4)cn4c3c2Oc2cc3c(cc2-4)oc2ccccc23)CC1 [compound 481],3.6,0.5,
O=C(CN1CCCCC1)N[C@@H]1CCN(c2c(F)cc3c(=O)c(C(=O)NCCN4CCCC4)cn4c3c2Oc2cc3c(cc2-4)oc2ccccc23)C1 [compound 482],3.4,0.5,
CN1CCCC1CCNC(=O)c1cn2c3c(c(N4CC[C@@H](NC(=O)CCN5CCCC5)C4)c(F)cc3c1=O)Oc1cc3c(cc1-2)oc1ccccc13 (stereo partly shown) [compound 483],3.2,0.5,
CN1CCCC1CCNC(=O)c1cn2c3c(c(N4CC[C@@H](NC(=O)CCN5CCCCC5)C4)c(F)cc3c1=O)Oc1cc3c(cc1-2)oc1ccccc13 (stereo partly shown) [compound 484],3.1,0.5,
NCCCNC(=O)c1cn2c3c(c(N4CC[C@@H](N)C4)c(F)cc3c1=O)Oc1cc3ccccc3cc1-2 [compound 485],0.5,0.5,
CN1CCCC1CCNC(=O)c1cn2c3c(c(NC4CN5CCC4CC5)c(F)cc3c1=O)Oc1cc3ccccc3cc1-2 (stereo not shown) [compound 486],0.39,0.5,
CC1(C)CC(NC(=O)c2cn3c4c(c(N5CC6CCCNC6C5)c(F)cc4c2=O)Oc2cc4ccccc4cc2-3)CC(C)(C)N1 (stereo not shown) [compound 487],0.18,0.5,
CN(C)CC(C)(C)CNC(=O)c1cn2c3c(c(N4CC5CCCNC5C4)c(F)cc3c1=O)Oc1cc3ccccc3cc1-2 (stereo not shown) [compound 493],0.4,0.44,
CN(C)CCCCNc1c(F)cc2c(=O)c(C(=O)NCCC3CCCN3C)cn3c2c1Oc1c-3ccc2ccccc12 (stereo not shown) [compound 496],4,0.41,
CN1CCCC1CCNc1c(F)cc2c(=O)c(C(=O)NCCN3CCCC3)cn3c2c1Oc1c-3ccc2ccccc12 (stereo not shown) [compound 497],2.1,0.41,
CN(C)CCCCNC(=O)c1cn2c3c(c(N4CC[C@@H](NC(=O)CCNCCCn5ccnc5)C4)c(F)cc3c1=O)Oc1cc3c(cc1-2)oc1ccccc13 [compound 500],5.6,0.375,
CN(C)CCCCNc1c(F)cc2c(=O)c(C(=O)NCCC3CCCN3C)cn3c4cc5c(cc4oc1c23)c(=O)c1ccccc15 (stereo not shown) [compound 501],4.2,0.375,
O=C(NCCCN1CCOCC1)c1cn2c3cc4c(cc3oc3c(NCCN5CCCC5)c(F)cc(c1=O)c32)c(=O)c1ccccc14 [compound 502],4,0.375,
CN(C)/C=N/CCCCNC(=O)c1cn2c3c(c(N4CC[C@@H](N)C4)c(F)cc3c1=O)Oc1cc3ccccc3cc1-2 [compound 503],4,0.375,
O=C(CCN1CCCC1)N[C@@H]1CCN(c2c(F)cc3c(=O)c(C(=O)NCCN4CCOCC4)cn4c3c2Oc2cc3c(cc2-4)oc2ccccc23)C1 [compound 504],3.4,0.375,
CN1CCN(CC(=O)N[C@@H]2CCN(c3c(F)cc4c(=O)c(C(=O)NCCN5CCCC5)cn5c4c3Oc3cc4c(cc3-5)oc3ccccc34)C2)CC1 [compound 505],3.4,0.375,
